{"source": "patent US20010037025A1", "about": "“New compounds, their preparation and use” (priority 1998, published 2001)", "origin": "cited, not measured here", "test_system": "RAR", "details": "literature statement, Heyman et al. Cell 1992", "data": [{"smiles": "CC1=C(/C=C/C(C)=C/C=C/C(C)=C/C(=O)O)C(C)(C)CCC1", "note": "[all-trans RA]", "values": [{"measurement": "activation of / selectivity for RAR", "result": "displays selectivity for RAR"}]}]}
